From PubChem BioAssay (NCI)
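Growth conditions: 96-well plates. Treatment: test compound, 48 hours, 5 concentrations. Analysis: linear interpolation between bracketing concentrations; unreached endpoints set to highest concentration. Abbreviation: GI50, concentration required for 50% inhibition of growth. TGI marks complete inhibition of growth.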

How the values were obtained:
Assay in all cases: NCI-60 cell line screen, 48 h
[1] = system: SNB-75 CNS
[2] = system: IGROV1 ovarian
[3] = system: OVCAR-3 ovarian
[4] = system: T-47D breast
[5] = system: HCC-2998 colon
[6] = system: SK-MEL-28 melanoma
[7] = system: UO-31 renal
[8] = system: NCI-H460 lung
[9] = system: SK-OV-3 ovarian
[10] = system: U251 CNS

Row | Compound | TGI [1] [µM] | TGI [2] [µM] | TGI [3] [µM] | TGI [4] [µM] | TGI [5] [µM] | TGI [6] [µM] | TGI [7] [µM] | TGI [8] [µM] | TGI [9] [µM] | TGI [10] [µM] | GI50 [1] [µM] | GI50 [2] [µM] | GI50 [3] [µM] | GI50 [4] [µM] | GI50 [5] [µM] | GI50 [6] [µM] | GI50 [7] [µM] | GI50 [8] [nM] | GI50 [10] [nM]
1 | CCCCCCCCC/C=C1/CC(CO)(COC(=O)C2CCCCC2)OC1=O (stereo not drawn) | > 100 | > 100 | > 100 | > 100 | > 100 | > 100 | > 100 | > 100 | > 100 | > 100 | – | – | – | – | – | – | – | – | –
2 | CCN1CCC(O)(/C=C/c2ccc(Cl)c(Cl)c2)C(C(=O)/C=C/c2ccc(Cl)c(Cl)c2)C1 (stereo not drawn) | 2.37 | 1.71 | 1.91 | 2.36 | 3.25 | 7.97 | 2.3 | 2.02 | 4.61 | 3.79 | – | – | – | – | – | – | – | – | –
3 | CN(C)CC(O)CNC(=O)Nc1ccccc1 (stereo not drawn) | > 100 | > 100 | > 100 | > 100 | > 100 | > 100 | > 100 | > 100 | > 100 | > 100 | – | – | – | – | – | – | – | – | –
4 | CN(CCCNC(=O)c1[nH]nc2c1ccc1ccccc12)CCCNC(=O)c1[nH]nc2c1ccc1ccccc12 | 31.3 | 30.9 | 29 | 36.1 | 4.13 | 4.54 | 31.4 | 38 | 34.2 | 28.4 | – | – | – | – | – | – | – | – | –
5 | O=S1(=O)OCCOS(=O)(=O)C1C1c2ccccc2-c2ccccc21 | 31.9 | > 100 | > 100 | > 100 | > 100 | > 100 | 93.2 | 33.7 | > 100 | 57.9 | – | – | – | – | – | – | – | – | –
6 | c1ccc(C(OCCN2CC3CCC(C2)N3)c2ccccc2)cc1 | > 100 | > 100 | > 100 | > 100 | 32.3 | > 100 | > 100 | > 100 | > 100 | > 100 | – | – | – | – | – | – | – | – | –
7 | CC(NC(=O)C(NC(=O)C(NC(=O)C(F)(F)F)C(C)C)C(C)C)C(=O)Oc1c(Cl)c(Cl)c(Cl)c(Cl)c1Cl (stereo not drawn) | > 100 | > 100 | > 100 | > 100 | > 100 | > 100 | > 100 | > 100 | > 100 | > 100 | – | – | – | – | – | – | – | – | –
8 | CN1CN(c2ccccc2)C2(CCN(C(=O)OC(C)(C)C)CC2)C1=O | > 100 | > 100 | > 100 | > 100 | > 100 | > 100 | > 100 | > 100 | > 100 | > 100 | – | – | – | – | – | – | – | – | –
9 | Cc1ccc(S(=O)(=O)N(CC(O)COc2ccccc2)c2ccccc2Cl)cc1 (stereo not drawn) | 41.7 | 25.1 | 42.1 | 69.7 | 37 | 29.1 | 24.8 | 36.2 | 52 | 29.2 | – | – | – | – | – | – | – | – | –
10 | Cc1ccnc2[nH]c(-c3ccc(Cl)cc3)cc(=O)c12 | 25.8 | > 100 | 99.1 | > 100 | > 100 | > 100 | > 100 | > 100 | > 62.1 | > 100 | – | – | – | – | – | – | – | – | –
11 | CC(C)(C)c1ccc(OCCOc2ccc(C(C)(C)C)cc2NC=O)c(NC=O)c1 | > 78.7 | > 100 | 36.5 | > 86 | 23.5 | 32.6 | 30.9 | 34.3 | > 100 | 34.7 | – | – | – | – | – | – | – | – | –
12 | O=C(/C=C/c1cc2ccccc2[nH]c1=O)c1ccc(O)cc1 | 23 | 45.1 | 11.8 | 20.4 | 16 | 19.5 | 26.7 | 6.87 | – | 10.9 | 9.3 | 4.35 | 3.22 | 4.19 | 4.13 | 5.11 | 4.38 | 2390 | 2600
13 | O=C(NC12CC3CC(CC(C3)C1)C2)n1cnc2c(Cl)ncnc21 | 73.8 | 35.4 | 51.3 | > 100 | 38.9 | > 100 | > 100 | 75.8 | 79.4 | 92.3 | – | – | – | – | – | – | – | – | –
14 | COc1cc(/C=[N+](\[O-])c2ccccc2Cl)ccc1OC(=S)S | 63.6 | > 100 | > 100 | 53.4 | > 100 | > 100 | > 100 | > 100 | > 100 | > 100 | – | – | – | – | – | – | – | – | –
15 | CCOP(=O)(OCC)C(Cc1cn(S(=O)(=O)c2ccc(C)cc2)cn1)C(=O)O (stereo not drawn) | > 100 | > 100 | > 100 | > 100 | > 100 | > 100 | > 100 | > 100 | > 100 | > 100 | – | – | – | – | – | – | – | – | –
16 | O=C1/C(=C/Cc2ccco2)N=C(c2ccccc2)N1c1nc2ccc(Sc3ccccc3)cc2[nH]1 | 75.7 | > 100 | 84.8 | > 100 | 40.6 | 85 | 50.6 | > 100 | 84.6 | 43.9 | – | – | – | – | – | – | – | – | –
17 | CCc1c[n+]2c(cc1C1=CN3c4ccccc4[C@]45CCN6C/C(=C/CO)[C@H](C[C@H]64)[C@@H]([C@@H]1O)[C@H]35)-c1[nH]c3ccccc3c1CC2 | > 50 | > 50 | > 50 | > 50 | > 50 | > 50 | > 50 | > 50 | > 50 | > 50 | – | – | – | – | – | – | – | – | –
18 | CSCCC(NOC(=O)Cc1ccccc1)P(=O)(O)c1ccccc1 (stereo not drawn) | > 100 | > 100 | > 100 | > 100 | > 100 | > 100 | > 100 | > 100 | > 100 | > 100 | – | – | – | – | – | – | – | – | –
